According to ChEMBL document CHEMBL3994657, “3,4-Dihydroquinazoline derivatives inhibit the activities of cholinesterase enzymes” (Bioorg Med Chem Lett, 2017):

How the values were obtained:
Acetylcholinesterase = Acetylcholinesterase (Electrophorus electricus, UniProt O42275); experiment: Inhibition of electric eel AChE using acetylthiocholine iodide as substrate preincubated for 20 mins followed by substrate addition measured for 5 mins by spectrophotometry based Ellman method
Cholinesterase [1] = target: T1, Cholinesterase (Equus caballus, UniProt P81908); experiment: Inhibition of equine serum BCHE using butyrylthiocholine iodide as substrate preincubated for 20 mins followed by substrate addition measured for 5 mins by spectrophotometry based Ellman method
T1 sequence (P81908 whole entry): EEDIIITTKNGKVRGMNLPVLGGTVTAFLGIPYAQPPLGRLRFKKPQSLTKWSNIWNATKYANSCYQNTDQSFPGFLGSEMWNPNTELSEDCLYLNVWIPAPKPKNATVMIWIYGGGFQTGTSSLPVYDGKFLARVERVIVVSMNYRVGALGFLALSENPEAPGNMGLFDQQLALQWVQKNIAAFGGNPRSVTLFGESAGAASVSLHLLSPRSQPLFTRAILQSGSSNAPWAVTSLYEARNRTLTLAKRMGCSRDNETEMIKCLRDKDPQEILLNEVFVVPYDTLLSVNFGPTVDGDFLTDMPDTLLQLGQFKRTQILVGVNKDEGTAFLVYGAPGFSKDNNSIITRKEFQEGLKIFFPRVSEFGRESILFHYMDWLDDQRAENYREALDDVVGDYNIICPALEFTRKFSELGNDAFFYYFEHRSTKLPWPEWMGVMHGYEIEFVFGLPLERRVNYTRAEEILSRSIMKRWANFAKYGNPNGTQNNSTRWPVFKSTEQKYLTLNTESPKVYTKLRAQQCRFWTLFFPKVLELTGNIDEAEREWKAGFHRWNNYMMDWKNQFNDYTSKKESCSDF

Cholinesterase [2] = target: T1, Cholinesterase; experiment: Mixed/noncompetitive inhibition of equine serum BCHE using butyrylthiocholine iodide as substrate preincubated for 20 mins followed by substrate addition measured for 5 mins by Lineweaver-Burk plot analysis; conditions: read-out: Ki(app)
[3] = Selectivity ratio of IC50 for electric eel AChE to IC50 for equine serum BCHE

Chain of Acetylcholinesterase (O42275 whole entry): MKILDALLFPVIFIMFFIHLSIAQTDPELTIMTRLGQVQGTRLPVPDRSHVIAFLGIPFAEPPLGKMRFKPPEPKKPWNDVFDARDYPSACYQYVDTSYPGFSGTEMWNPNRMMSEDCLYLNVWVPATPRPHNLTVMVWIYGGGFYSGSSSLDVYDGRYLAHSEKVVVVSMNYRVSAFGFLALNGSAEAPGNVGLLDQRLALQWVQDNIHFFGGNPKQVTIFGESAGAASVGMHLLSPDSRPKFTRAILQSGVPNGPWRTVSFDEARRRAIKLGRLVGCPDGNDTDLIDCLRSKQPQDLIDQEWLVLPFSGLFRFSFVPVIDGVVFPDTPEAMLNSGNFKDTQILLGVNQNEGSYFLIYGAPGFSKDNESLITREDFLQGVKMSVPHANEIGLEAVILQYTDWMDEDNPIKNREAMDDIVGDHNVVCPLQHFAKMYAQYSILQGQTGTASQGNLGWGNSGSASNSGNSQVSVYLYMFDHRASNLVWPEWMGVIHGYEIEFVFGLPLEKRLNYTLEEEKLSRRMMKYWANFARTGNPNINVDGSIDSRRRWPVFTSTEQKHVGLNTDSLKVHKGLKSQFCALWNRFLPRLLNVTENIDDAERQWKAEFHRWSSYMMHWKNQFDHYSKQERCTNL

Row | Compound | IC50 (Acetylcholinesterase) [nM] | IC50 (Cholinesterase [1]) [nM] | Ki (Cholinesterase [2]) [nM] | Ratio IC50 [3]
1 | COC(=O)CC1c2ccccc2N=C(N2CCN(C)CC2)N1C1CCCCC1 (configuration not stated) | ≥ 10000 | > 10000 |  | 
2 | CN(C)CCCCCN(C)C1=Nc2ccccc2C(CC(=O)NCc2ccc(F)cc2)N1c1ccc(-c2ccc(F)cc2)cc1 (configuration not stated) | 6500 | 240 |  | 
3 | CN(CCCCCN)C1=Nc2ccccc2C(CC(=O)NCc2ccccc2)N1c1ccc(-c2ccccc2)cc1 (configuration not stated) | 4100 | 5300 |  | 
4 | O=C(CC1c2cccc(F)c2N=C(N2CCN(CCN3CCCC3)CC2)N1c1ccc(C2CCCCC2)cc1)NCc1ccc(F)cc1 (configuration not stated) | > 10000 | 2040 |  | 
5 | CN(C)CCCCCN(C)C1=Nc2ccccc2C(CC(=O)NCc2ccc(F)cc2)N1c1ccc(C2CCCCC2)cc1 (configuration not stated) | 4400 | 400 |  | 
6 | O=C(CC1c2ccccc2N=C(N2CCN(CCN3CCCC3)CC2)N1c1ccc(C2CCCCC2)cc1)NCc1ccc(F)cc1 (configuration not stated) | 8000 | 2130 |  | 
7 | O=C(CC1c2ccccc2N=C(N2CCN(CCN3CCCC3)CC2)N1c1ccc(-c2ccccc2)cc1)NCc1ccc(F)cc1 (configuration not stated) | > 10000 | 1470 |  | 
8 | CN1CCN(C2=Nc3ccccc3C(CC(=O)NCc3ccccc3)N2c2ccccc2)CC1 (configuration not stated) | > 10000 | > 10000 |  | 
9 | CN(C)CCN1CCN(C2=Nc3ccccc3C(CC(=O)NCc3ccc(F)cc3)N2c2ccc(-c3ccccc3)cc2)CC1 (configuration not stated) | ≥ 10000 | 2600 |  | 
10 | COc1ccc(CNC(=O)CC2c3ccccc3N=C(N3CCN(CCN(C)C)CC3)N2c2ccc(-c3ccccc3)cc2)cc1 (configuration not stated) | > 10000 | 6100 |  | 
11 | CN(C)CCCCCN(C)C1=Nc2ccccc2C(CC(=O)NCc2ccccc2)N1c1ccc(-c2ccccc2)cc1 (configuration not stated) | ≥ 10000 | 62 | 51 | 161
12 | CN(C)CCCCCN(C)C1=Nc2c(F)cc(F)cc2C(CC(=O)NCc2ccccc2)N1c1ccc(-c2ccccc2)cc1 (configuration not stated) | 1200 | 380 |  | 
13 | COC(=O)CC1c2ccccc2N=C(N(C)CCCCCN)N1c1ccc(-c2ccccc2)cc1 (configuration not stated) | ≥ 10000 | 140 |  | 
14 | CN(CCCCCN1CCCC1)C1=Nc2ccccc2C(CC(=O)NCc2ccccc2)N1c1ccc(-c2ccccc2)cc1 (configuration not stated) | 6600 | 45 | 29 | 146
